Values quoted from earlier work as cited in patent US20220016034A1, “OPIOID RECEPTOR MODULATOR DOSAGE FORMULATIONS” (Allergan Holdings Unlimited Company, priority 2020, published 2022).

Tested on: stressed and non-stressed mice

Structure (SMILES): CN(C)C(=O)C(CCN1CCC(O)(c2ccc(Cl)cc2)CC1)(c1ccccc1)c1ccccc1 [loperamide]
- gastrointestinal transit and fecal output: completely prevented fecal output in a dose-dependent manner
